Assays:
[1] = Paramagnetic relaxation properties in water at 10 MHz (0.15T), RADX spin analyzer; type: physicochemical; conditions: 10 MHz (0.15T); for spin-lattice (T₁) relaxation value / spin-spin (T₂) relaxation value: 37°C, triplicate, mean +/- SD; for millimolar relaxivity for T₁ / millimolar relaxivity for T₂: in water; for millimolar relaxivity for T₁: calculated from T₁ and concentration; for millimolar relaxivity for T₂: calculated from T₂ and concentration
Description: The paramagnetic relaxation properties of [manganese(II)·(H₂O)₂·(L-alanine)₂]⁺²(Cl₂)⁻² in water were measured at 10 MHz (0.15T) with a spin analyzer (RADX; Houston, TX) at 37°C. After thermal equilibrium, the spin-lattice (T₁) and spin-spin (T₂) relaxation values were measured in triplicate.
The paramagnetic relaxation of the title compound in water was measured at 10 MHz (0.15T) with a spin analyzer (RADX; Houston, TX). After thermal equilibrium, the spin-lattice (T₁) and spin-spin (T₂) relaxation values were measured.
Relaxivity was measured at 10 MHz (0.15T) as described in Example 10.
The relaxivity of the title compound was performed at 0.15 T (10 MHz) with a RADX Spin Analyzer (Houston, TX) at 37°C.

[2] = Paramagnetic relaxation properties in human plasma at 37°C; type: physicochemical; conditions: for T₂ value / T₁ value / R₁ / R₂ / T₁ changed by (repeat measurement) / T₂ changed by (repeat measurement): 37°C; for T₁ value: triplicate; for T₁ changed by (repeat measurement) / T₂ changed by (repeat measurement): repeat measurement 80 minutes later; for T₂ relaxivity in plasma, fold greater than GdDTPA: versus GdDTPA; for T₁ relaxivity in plasma, fold greater than GdDTPA: versus gadolinium diethylenetriaminepentaacetic acid chelate (GdDTPA)

millimolar relaxivity for T₁ [1] [mM⁻¹ s⁻¹]	millimolar relaxivity for T₂ [1] [mM⁻¹ s⁻¹]	R₁ [2] [mM⁻¹ s⁻¹]	R₂ [2] [mM⁻¹ s⁻¹]	T₁ changed by (repeat measurement) [2]	T₂ changed by (repeat measurement) [2]	T₂ relaxivity in plasma, fold greater than GdDTPA [2] [fold]	T₁ relaxivity in plasma, fold greater than GdDTPA [2] [fold]	spin-lattice (T₁) relaxation value ([1]; 0.97 mM solution in water) [ms]	spin-spin (T₂) relaxation value ([1]; 0.97 mM solution in water) [ms]	T₂ value ([2]; 92 µM final concentration) [ms]	T₁ value ([2]; 92 µM final concentration) [ms]	T₂ value ([2]; 90 µM final concentration) [ms]	T₁ value ([2]; 90 µM final concentration) [ms]	SMILES	other results
9.84	39.0	46.3	59.7	2%	2%	12.4	9.65	–	–	–	–	186 ± 7	240 ± 10	N[C@@H](Cc1ccccc1)C(=O)O.N[C@@H](Cc1ccccc1)C(=O)O.O.O.[Cl-].[Cl-].[Mn+2] [[Manganese(II)·(H₂O)₂·(L-phenylalanine)₂]⁺²(Cl₂)⁻²]	spin-lattice (T₁) relaxation value ([1]; 0.95 mM solution in water): 107 ± 5 ms; spin-spin (T₂) relaxation value ([1]; 0.95 mM solution in water): 27 ± 1 ms
9.82	36.8	45.1	55.5	1%	11%	11.6	9.4	105 ± 1	28 ± 1	196 ± 17	241 ± 7	–	–	C[C@@H](O)[C@H](N)C(=O)O.C[C@@H](O)[C@H](N)C(=O)O.O.O.[Cl-].[Cl-].[Mn+2] [Manganese(II)·(H₂O)₂·(L-threonine)₂]⁺²(Cl₂)⁻²]	–
9.66	37.6	47.3	61.1	2%	8%	12.7	9.9	–	–	–	–	182 ± 5	235 ± 7	CC[C@H](C)[C@H](N)C(=O)O.CC[C@H](C)[C@H](N)C(=O)O.O.O.[Cl-].[Cl-].[Mn+2] [[Manganese(II)·(H₂O)₂·(L-isoleucine)₂]⁺²(Cl₂)⁻²]	spin-lattice (T₁) relaxation value ([1]; 0.99 mM solution in water): 109 ± 7 ms; spin-spin (T₂) relaxation value ([1]; 0.99 mM solution in water): 28 ± 1 ms

Further lines, the compound ahead of its results:

SMILES	millimolar relaxivity for T₁ [1] [mM⁻¹ s⁻¹]	millimolar relaxivity for T₂ [1] [mM⁻¹ s⁻¹]	R₁ [2] [mM⁻¹ s⁻¹]	R₂ [2] [mM⁻¹ s⁻¹]	T₁ changed by (repeat measurement) [2]	T₂ changed by (repeat measurement) [2]	T₂ relaxivity in plasma, fold greater than GdDTPA [2] [fold]	T₁ relaxivity in plasma, fold greater than GdDTPA [2] [fold]	spin-lattice (T₁) relaxation value ([1]; 0.97 mM solution in water) [ms]	spin-spin (T₂) relaxation value ([1]; 0.97 mM solution in water) [ms]	T₂ value ([2]; 92 µM final concentration) [ms]	T₁ value ([2]; 92 µM final concentration) [ms]	T₂ value ([2]; 90 µM final concentration) [ms]	T₁ value ([2]; 90 µM final concentration) [ms]	other results
O.O.O=C(O)[C@@H]1C[C@@H](O)CN1.O=C(O)[C@@H]1C[C@@H](O)CN1.[Cl-].[Cl-].[Mn+2] [[Manganese(II)·(H₂O)₂·(L-hydroxyproline)₂]⁺²(Cl₂)⁻²]	9.19	39.3	43.7	56.9	did not change	1%	11.9	9.1	–	–	–	–	–	–	spin-lattice (T₁) relaxation value ([1]; 0.98 mM solution in water): 111 ± 3 ms; spin-spin (T₂) relaxation value ([1]; 0.98 mM solution in water): 26 ± 1 ms; T₂ value ([2]; 93 µM final concentration): 189 ± 9 ms; T₁ value ([2]; 93 µM final concentration): 246 ± 13 ms
NCCCC[C@H](N)C(=O)O.NCCCC[C@H](N)C(=O)O.O.O.[Cl-].[Cl-].[Mn+2] [Manganese(II)·(H₂O)₂·(L-lysine)₂]⁺²(Cl₂)⁻²]	9.55	39.7	47.3	56.6	3%	3%	11.8	9.9	108 ± 9	26 ± 1	192 ± 8	230 ± 9	–	–	–
N[C@@H](Cc1c[nH]cn1)C(=O)O.N[C@@H](Cc1c[nH]cn1)C(=O)O.O.O.[Cl-].[Cl-].[Mn+2] [[Manganese(II)·(H₂O)₂·(L-histidine)₂]⁺²(Cl₂)⁻²]	9.20	35.6	46.3	58.4	12%	1%	12.2	9.7	112 ± 4	29 ± 1	186 ± 3	235 ± 2	–	–	–
CC(C)C[C@H](N)C(=O)O.CC(C)C[C@H](N)C(=O)O.O.O.[Cl-].[Cl-].[Mn+2] [[Manganese(II)·(H₂O)₂·(L-leucine)₂]⁺²(Cl₂)⁻²]	9.33	39.4	45.7	57.9	5%	4%	12.1	9.5	–	–	–	–	192 ± 0	243 ± 13	spin-lattice (T₁) relaxation value ([1]; 0.94 mM solution in water): 114 ± 9 ms; spin-spin (T₂) relaxation value ([1]; 0.94 mM solution in water): 27 ± 1 ms
N[C@@H](Cc1ccc(O)cc1)C(=O)O.N[C@@H](Cc1ccc(O)cc1)C(=O)O.O.O.[Cl-].[Cl-].[Mn+2] [[Manganese(II)·(H₂O)₂·(L-tyrosine)₂]⁺²(Cl₂)⁻²]	9.94	38.7	49.3	71.6	5%	9%	14.8	10.3	–	–	–	–	–	–	spin-lattice (T₁) relaxation value ([1]; 0.68 mM solution in water): 148 ± 1 ms; spin-spin (T₂) relaxation value ([1]; 0.68 mM solution in water): 38 ± 1 ms; T₂ value ([2]; 65 µM final concentration): 216 ± 2 ms; T₁ value ([2]; 65 µM final concentration): 312 ± 20 ms
NC(=O)C[C@H]([NH3+])C(=O)[O-].NC(=O)C[C@H]([NH3+])C(=O)[O-].O.O.[Cl-].[Cl-].[Mn+2] [Manganese(II)·(H₂O)₂·(L-asparginine)₂]⁺²(Cl₂)⁻²]	9.09	36.7	45.5	58.5	7%	2%	12.2	9.5	–	–	–	–	190 ± 3	244 ± 20	spin-lattice (T₁) relaxation value ([1]; 0.94 mM solution in water): 117 ± 5 ms; spin-spin (T₂) relaxation value ([1]; 0.94 mM solution in water): 29 ± 1 ms
NC(=O)CC[C@H](N)C(=O)O.NC(=O)CC[C@H](N)C(=O)O.O.O.[Cl-].[Cl-].[Mn+2] [[Manganese(II)·(H₂O)₂·(L-glutamine)₂]⁺²(Cl₂)⁻²]	9.75	39.0	44.3	59.1	5%	did not change	12.3	9.2	–	–	–	–	188 ± 8	251 ± 18	spin-lattice (T₁) relaxation value ([1]; 0.95 mM solution in water): 108 ± 3 ms; spin-spin (T₂) relaxation value ([1]; 0.95 mM solution in water): 27 ± 0 ms
